Values of other authors in patent US20110104279A1, “HEALING POWDER AND METHOD OF USE THEREOF” (priority 2009, published 2011).

Experiments:
[1] = tested on: full thickness wounds in the backs of pigs; conditions: wounds 25 mm square, 9 mm deep, packed and covered with Opsite
[2] = tested on: acute mediastinitis wounds; conditions: 19 patients, wounds packed every 3 to 4 hours

| SMILES | wound healing compared with wounds covered with Opsite alone [1] | average time of treatment to near complete debridement, granulation tissue formation and eradication of bacterial infection [2] [days] |
| --- | --- | --- |
| N=C(NCCCCCCNC(=N)NC(=N)Nc1ccc(Cl)cc1)NC(=N)Nc1ccc(Cl)cc1.O=C(O)[C@H](O)[C@@H](O)[C@H](O)[C@H](O)CO.O=C(O)[C@H](O)[C@@H](O)[C@H](O)[C@H](O)CO [chlorhexidine gluconate] | delayed healing | – |
| OC[C@H]1O[C@@](CO)(O[C@H]2O[C@H](CO)[C@@H](O)[C@H](O)[C@H]2O)[C@@H](O)[C@@H]1O [granular sugar, sucrose] | – | 7.6 |
